Laboratory results reported in patent US20250388592A1 (REMYND N.V., priority 2022, published 2025).

Each compound was assayed on M17_3TAU(P301L) cells (assay: TAU-induced cytotoxicity (LDH) in the neuroblastoma tauopathy model). Details: Homo sapiens, 168 h, inhibition of TAU-induced toxicity, 7 days retinoic acid differentiation, LDH readout.
Assay type: cell-based
How it was run: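 Stably transfected BE-M17 cells expressing human TAU-P301L, seeded in serum-free detection medium, then differentiated with 2.5 μM RA (added in equal volume) for 7 days at 37° C/5% CO2 to induce TAU aggregation. Cytotoxicity = supernatant LDH increase over total LDH; EC50 from dose-dependent inhibition curves.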
O=C(Cc1ccc(Cl)cc1)N1CC2(CN(Cc3ccc(F)cc3)C2)C1 [Cpd B061, 2-(4-chlorophenyl)-1-(6-(4-fluorobenzyl)-2,6-diazaspiro[3.3]heptan-2-yl)ethanone] showed an EC50 of 2.46 nM. O=C(NC1CCC(F)(F)CC1)N1CC2(CN(Cc3ccc(C(F)(F)F)cc3)C2)C1 [Cpd B460] was tested, and the EC50 was 63 nM. Work on O=C(Cc1ccc(F)cc1)N1CC2(CN(CCc3ccccc3Cl)C2)C1 [Cpd B063, 1-{6-[2-(2-Chloro-phenyl)-ethyl]-2,6-diaza-spiro[3.3]hept-2-yl}-2-(4-fluoro-phenyl)-ethanone] yielded an EC50 of 3.12 nM. O=C(CC1CCC(F)(F)CC1)N1CC2(CN(Cc3ccccc3OC(F)F)C2)C1 [Cpd B111] showed an EC50 of 3.55 nM. In the case of CC(C)(C(=O)c1ccccc1)N1CC2(CN(C(=O)Cc3ccc(F)cc3)C2)C1 [Cpd B029, 2-{6-[2-(4-Fluoro-phenyl)-acetyl]-2,6-diaza-spiro[3.3]hept-2-yl}-2-methyl-1-phenyl-propan-1-one], the EC50 is reported as 8.3 nM. With Cc1nc(CN2CC3(C2)CN(C(=O)OC2CCC(F)(F)CC2)C3)co1 [Cpd B143] the EC50 was 109 nM. Cc1ccc(CNC2CC3(C2)CC(Nc2nc(Cc4ccc(Cl)cc4)ns2)C3)cc1 (stereo not drawn) [Cpd B321, N-(3-(4-chlorobenzyl)-1,2,4-thiadiazol-5-yl)-N′-(4-methylbenzyl) spiro[3.3]heptane-2,6-diamine] showed an EC50 of 8.6 nM. Cn1cc(CN2CC3(C2)CN(C(=O)NCc2ccc(F)cc2)C3)cn1 [Cpd B405] showed an EC50 of 4820 nM. Compound O=C(OCC1CCCC1)N1CC2(CN(Cc3ccc(F)cc3)C2)C1 [Cpd B131] has an EC50 of 4.38 nM. With O=C(CC1CCC(F)(F)CC1)N1CC2(CN(Cc3ccc(F)cc3Cl)C2)C1 [Cpd B107] the EC50 was < 0.19 nM. Fc1ccc(Cc2nsc(NC3CC4(CC(NCc5ccccc5)C4)C3)n2)cc1 (stereo not drawn) [Cpd B301, N-benzyl-N′-(3-(4-fluorobenzyl)-1,2,4-thiadiazol-5-yl) spiro[3.3]heptane-2,6-diamine] was tested, and the EC50 was 11.2 nM. For O=C(CC1CCC(F)(F)CC1)N1CC2(CN(Cc3c(F)cccc3C(F)(F)F)C2)C1 [Cpd B110], the EC50 was 180 nM. In the case of Cn1cnc(CN2CC3(C2)CN(C(=O)OC2CCC(F)(F)CC2)C3)c1Cl [Cpd B446], the EC50 is reported as 150 nM. Cn1cc(Cl)c(CN2CC3(C2)CN(C(=O)NCC2CCC(F)(F)CC2)C3)n1 [Cpd B202] was tested, and the EC50 was 14.1 nM. O=C(NC1CCC(F)(F)CC1)N1CC2(CN(Cc3c(F)cccc3C(F)(F)F)C2)C1 [Cpd B208] was tested, and the EC50 was 252 nM. Compound O=C(Cc1ccc(Cl)cc1)N1CC2(CN(CCc3cccc(F)c3)C2)C1 [Cpd B045, 2-(4-chlorophenyl)-1-(6-(3-fluorophenethyl)-2,6-diazaspiro[3.3]heptan-2-yl)ethanone] has an EC50 of 11.6 nM. COC(=O)c1ccc(CN2CC3(C2)CN(C(=O)Cc2ccc(F)cc2)C3)cc1 [Cpd B014, 4-{6-[2-(4-Fluoro-phenyl)-acetyl]-2,6-diaza-spiro[3.3]hept-2-ylmethyl}-benzoic acid methyl ester] was tested, and the EC50 was 0.92 nM. Cc1nc(CN2CC3(C2)CN(C(=O)CC2CCC(F)(F)CC2)C3)cs1 [Cpd B102] showed an EC50 of 26.4 nM. In the case of COc1cccc(CN2CC3(C2)CN(C(=O)Nc2ccc(OC(F)F)cc2)C3)c1 [Cpd B186], the EC50 is reported as 34 nM. For Cc1cccnc1CN1CC2(C1)CN(C(=O)NC1CCCCC1)C2 [Cpd B178], the EC50 was 128 nM. With Cc1nc(CN2CC3(C2)CN(C(=O)COc2ccc(F)cc2)C3)cs1 [Cpd B103] the EC50 was 2000 nM. Cc1cccnc1CN1CC2(C1)CN(C(=O)CC13CC(C1)C3)C2 [Cpd B408] showed an EC50 of 4000 nM. O=C(NC1CCCCC1)N1CC2(CN(Cc3ccc(F)cc3)C2)C1 [Cpd B454] showed an EC50 of 76.6 nM. Work on CCCN1CC2(C1)CN(C(=O)Cc1ccc(Cl)cc1)C2 [Cpd B042, 2-(4-chlorophenyl)-1-(6-propyl-2,6-diazaspiro[3.3]heptan-2-yl)ethanone] yielded an EC50 of 32.8 nM. Cc1nc(CN2CC3(C2)CN(C(=O)Cc2ccccc2F)C3)cs1 [Cpd B424] was tested, and the EC50 was 930 nM. With O=C(OC1CCC(F)(F)CC1)N1CC2(CN(Cc3ncccc3C(F)(F)F)C2)C1 [Cpd B155] the EC50 was 4.67 nM. For O=C(CC1CCC(F)(F)CC1)N1CC2(CN(Cc3ncccc3C(F)(F)F)C2)C1 [Cpd B112], the EC50 was 12.2 nM. Work on O=C(Cc1ccc(F)c(F)c1)N1CC2(CN(Cc3ccccc3)C2)C1 [Cpd B007, 1-(6-benzyl-2,6-diazaspiro[3.3]heptan-2-yl)-2-(3,4-difluorophenyl)ethanone] yielded an EC50 of 4.16 nM. With CN(Cc1ccccc1)C1CC2(CC(NC(=O)Cc3ccc(F)cc3)C2)C1 (stereo not drawn) [Cpd B067, N-(6-(benzyl(methyl)amino)spiro[3.3]heptan-2-yl)-2-(4-fluorophenyl)acetamide] the EC50 was 3.54 nM.

Each compound was assayed on Tau-P301S transgenic mice (assay: Hippocampal long-term potentiation (CA3-CA1 fEPSP) in human Tau transgenic mice model of Alzheimer disease). Details: 0.4 mpk orally once daily for 7 days, 41-60 minute post-induction interval.
Assay type: in vivo, mouse
Text: The Tau-P301S line of mice was transgenic for the 383 aa isoform of human tau with the P301S mutation (Allen et al., 2002). In these mice, a clinical mutant of the human Tau (P301S) was expressed under control of the murine Thy1 promoter (neuron-specific expression) in C57Bl/6JxCBA/ca background. The homozygous hTauP301S-Tg model used consisted of the progeny from a cross between two homozygous hTauP301S-Tg parental mice in C57Bl/6JxCBA/ca background, bred in SPF breeding conditions.
Six mice (3,5 months of age) per group were treated orally once daily for 7 days with vehicle or 0.4, 2 or 10 mg/kg cpd B061, or twice daily for 7 days with vehicle or 25 mg/kg cpd B112, formulated in labrasol/capryol (70/30% W/V). A wild type vehicle group was included as well. The mice in study were sacrificed after a minimum of 7 days of acclimatization and 7 days of dosing. LTP measurements occurred between 90 and 120 minutes after excision of the brain.
Mice were anaesthetized with isoflurane and then decapitated. Heads were immediately immersed in ice-cold freshly prepared artificial CSF (cerebrospinal fluid) (aCSF) for at least 2 min before brain extraction. Acute slices (400 μm thick) were prepared with a vibratome (VT 1000S; Leica Microsystems, Bannockburn, IL) in ice-cold gassed aCSF. Sections were incubated in aCSF at 34° C. for 20 min and then kept at room temperature for at least 1 h before recording. aCSF was composed of the following (in mM): 119 NaCl, 11 d-glucose, 1.3 MgCl2·6H2O, 1.3 NaH2PO4, 2.5 KCl, 2.5 CaCl2, 26 NaHCO3, gassed with O2/CO2 (95/5%) at least 20 min before use and throughout the experiment.
Recordings were performed in a submerged chamber continuously flowed with aCSF at 2 ml/min. Extracellular field excitatory postsynaptic potentials (fEPSPs) were recorded in the CA1 stratum radiatum using a glass micropipette filled with aCSF. fEPSPs were evoked by the electrical
With O=C(Cc1ccc(Cl)cc1)N1CC2(CN(Cc3ccc(F)cc3)C2)C1 [Cpd B061, 2-(4-chlorophenyl)-1-(6-(4-fluorobenzyl)-2,6-diazaspiro[3.3]heptan-2-yl)ethanone] the “Average fEPSP slope (% of baseline)” value was 129.0 % of baseline.

Same assay, conditions: 2 mpk orally once daily for 7 days, 41-60 minute post-induction interval
O=C(Cc1ccc(Cl)cc1)N1CC2(CN(Cc3ccc(F)cc3)C2)C1 [Cpd B061, 2-(4-chlorophenyl)-1-(6-(4-fluorobenzyl)-2,6-diazaspiro[3.3]heptan-2-yl)ethanone] was tested, and the “Average fEPSP slope (% of baseline)” value was 152.2 % of baseline.

Same assay, conditions: 10 mpk orally once daily for 7 days, 41-60 minute post-induction interval
O=C(Cc1ccc(Cl)cc1)N1CC2(CN(Cc3ccc(F)cc3)C2)C1 [Cpd B061, 2-(4-chlorophenyl)-1-(6-(4-fluorobenzyl)-2,6-diazaspiro[3.3]heptan-2-yl)ethanone] was tested, and the “Average fEPSP slope (% of baseline)” value was 169.3 % of baseline.

Same assay, conditions: 25 mpk orally twice daily for 7 days, 41-60 minute post-induction interval
In the case of O=C(CC1CCC(F)(F)CC1)N1CC2(CN(Cc3ncccc3C(F)(F)F)C2)C1 [Cpd B112], the “Average fEPSP slope (% of baseline)” value is reported as 144.4 % of baseline.
